Legend:
Assay in all cases: KINOMEscan binding assay
Conditions in all cases: read-out: % Ctrl @ 10000 nM
FLT3-autoinhibited = FLT3-autoinhibited (Homo sapiens, UniProt P36888)
PIK3CA (Q546K) = PIK3CA (Q546K) (Homo sapiens, UniProt P42336, Q546K)
MEK1 = MEK1 (Homo sapiens, UniProt Q02750)
ULK1 = target: T1, ULK1 (Homo sapiens, UniProt O75385)
T1 construct: purchased DiscoveRx (KINOMEscan, LeadHunter Discovery services)

MYO3B = MYO3B (Homo sapiens, UniProt Q8WXR4)
EPHB2 = EPHB2 (Homo sapiens, UniProt P29323)
PHKG1 = PHKG1 (Homo sapiens, UniProt Q16816)
MKK7 = MKK7 (Homo sapiens, UniProt O14733)
RET (V804L) = RET (V804L) (Homo sapiens, UniProt P07949, V804L)
[1] = target: ABL1 (F317L) phosphorylated (Homo sapiens, UniProt P00519, F317L)
MAPKAPK5 = target: T2, MAPKAPK5 (Homo sapiens, UniProt Q8IW41)
T2 construct: T7 phage fusion (most assays) or DNA label after HEK293 expression; purchased DiscoveRx (KINOMEscan, LeadHunter Discovery services); host or cells: T7 phage in E. coli (BL21-derived) or HEK293

p38-delta = p38-delta (Homo sapiens, UniProt O15264)
EIF2AK1 = EIF2AK1 (Homo sapiens, UniProt Q9BQI3)
EIF2AK1, sequence (Q9BQI3 whole entry): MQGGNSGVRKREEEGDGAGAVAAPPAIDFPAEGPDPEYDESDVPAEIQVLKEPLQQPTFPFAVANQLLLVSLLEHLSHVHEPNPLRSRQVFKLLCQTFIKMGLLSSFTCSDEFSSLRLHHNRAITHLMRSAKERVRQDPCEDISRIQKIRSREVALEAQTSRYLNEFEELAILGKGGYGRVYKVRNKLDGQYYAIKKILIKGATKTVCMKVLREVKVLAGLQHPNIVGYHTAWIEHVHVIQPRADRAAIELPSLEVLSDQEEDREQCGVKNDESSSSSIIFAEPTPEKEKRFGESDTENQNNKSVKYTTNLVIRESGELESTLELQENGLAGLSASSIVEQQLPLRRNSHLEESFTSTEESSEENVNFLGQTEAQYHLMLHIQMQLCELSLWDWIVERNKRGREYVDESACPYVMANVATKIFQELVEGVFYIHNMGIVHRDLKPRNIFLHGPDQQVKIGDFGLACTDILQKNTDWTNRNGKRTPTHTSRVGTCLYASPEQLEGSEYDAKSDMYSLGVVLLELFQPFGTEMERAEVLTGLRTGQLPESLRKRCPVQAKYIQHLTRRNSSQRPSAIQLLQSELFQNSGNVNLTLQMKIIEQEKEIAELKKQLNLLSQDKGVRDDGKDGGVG

MAP3K15 = target: T3, MAP3K15 (Homo sapiens, UniProt Q6ZN16)
T3 construct: T7 phage fusion (most assays) or DNA label after HEK293 expression; purchased DiscoveRx (KINOMEscan, LeadHunter Discovery services); host or cells: T7 phage in E. coli (BL21-derived) or HEK293

RIOK2 = RIOK2 (Homo sapiens, UniProt Q9BVS4)
MUSK = MUSK (Homo sapiens, UniProt O15146)
MUSK, sequence (O15146 24-869): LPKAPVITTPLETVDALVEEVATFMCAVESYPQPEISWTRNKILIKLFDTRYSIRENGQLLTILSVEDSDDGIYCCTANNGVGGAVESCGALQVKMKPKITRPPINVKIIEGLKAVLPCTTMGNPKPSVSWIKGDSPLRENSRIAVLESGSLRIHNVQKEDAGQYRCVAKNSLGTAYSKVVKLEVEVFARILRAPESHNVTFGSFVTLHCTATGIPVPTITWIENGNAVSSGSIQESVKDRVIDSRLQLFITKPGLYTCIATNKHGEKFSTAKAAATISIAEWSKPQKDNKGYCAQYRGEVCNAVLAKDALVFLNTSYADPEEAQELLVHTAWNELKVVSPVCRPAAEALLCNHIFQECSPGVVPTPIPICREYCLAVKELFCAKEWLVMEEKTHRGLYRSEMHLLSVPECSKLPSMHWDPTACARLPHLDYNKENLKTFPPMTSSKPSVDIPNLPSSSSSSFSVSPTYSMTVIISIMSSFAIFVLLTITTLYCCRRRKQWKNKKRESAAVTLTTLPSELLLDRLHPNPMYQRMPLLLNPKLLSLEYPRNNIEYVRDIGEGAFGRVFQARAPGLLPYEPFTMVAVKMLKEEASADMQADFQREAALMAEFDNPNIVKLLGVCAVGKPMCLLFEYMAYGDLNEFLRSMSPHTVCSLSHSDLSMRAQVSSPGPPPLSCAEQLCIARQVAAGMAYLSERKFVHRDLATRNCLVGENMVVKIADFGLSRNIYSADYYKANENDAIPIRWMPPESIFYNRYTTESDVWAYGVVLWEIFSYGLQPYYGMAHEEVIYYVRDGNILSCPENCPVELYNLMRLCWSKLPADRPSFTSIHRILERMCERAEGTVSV

MTOR = MTOR (Homo sapiens, UniProt P42345)
ASK2 = ASK2 (Homo sapiens, UniProt O95382)
PRKCQ = PRKCQ (Homo sapiens, UniProt Q04759)
PAK3 = PAK3 (Homo sapiens, UniProt O75914)
KIT-autoinhibited = KIT-autoinhibited (Homo sapiens, UniProt P10721)
KIT-autoinhibited, sequence (P10721 546-976 limits assumed): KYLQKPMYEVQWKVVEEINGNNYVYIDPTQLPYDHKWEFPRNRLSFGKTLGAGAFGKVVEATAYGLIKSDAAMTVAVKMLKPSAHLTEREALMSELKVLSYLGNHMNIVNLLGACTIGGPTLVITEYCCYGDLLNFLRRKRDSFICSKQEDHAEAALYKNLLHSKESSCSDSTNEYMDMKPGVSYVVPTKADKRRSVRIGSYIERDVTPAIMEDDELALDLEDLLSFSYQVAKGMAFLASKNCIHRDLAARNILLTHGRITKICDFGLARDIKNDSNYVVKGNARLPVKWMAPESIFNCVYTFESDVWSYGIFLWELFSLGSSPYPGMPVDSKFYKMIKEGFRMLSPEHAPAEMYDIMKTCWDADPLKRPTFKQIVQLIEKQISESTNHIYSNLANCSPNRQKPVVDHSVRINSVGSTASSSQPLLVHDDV

EPHA4 = EPHA4 (Homo sapiens, UniProt P54764)
CDKL1 = CDKL1 (Homo sapiens, UniProt Q00532)
DMPK = DMPK (Homo sapiens, UniProt Q09013)
EPHB6 = EPHB6 (Homo sapiens, UniProt O15197)
EPHB6, sequence (O15197 32-1021): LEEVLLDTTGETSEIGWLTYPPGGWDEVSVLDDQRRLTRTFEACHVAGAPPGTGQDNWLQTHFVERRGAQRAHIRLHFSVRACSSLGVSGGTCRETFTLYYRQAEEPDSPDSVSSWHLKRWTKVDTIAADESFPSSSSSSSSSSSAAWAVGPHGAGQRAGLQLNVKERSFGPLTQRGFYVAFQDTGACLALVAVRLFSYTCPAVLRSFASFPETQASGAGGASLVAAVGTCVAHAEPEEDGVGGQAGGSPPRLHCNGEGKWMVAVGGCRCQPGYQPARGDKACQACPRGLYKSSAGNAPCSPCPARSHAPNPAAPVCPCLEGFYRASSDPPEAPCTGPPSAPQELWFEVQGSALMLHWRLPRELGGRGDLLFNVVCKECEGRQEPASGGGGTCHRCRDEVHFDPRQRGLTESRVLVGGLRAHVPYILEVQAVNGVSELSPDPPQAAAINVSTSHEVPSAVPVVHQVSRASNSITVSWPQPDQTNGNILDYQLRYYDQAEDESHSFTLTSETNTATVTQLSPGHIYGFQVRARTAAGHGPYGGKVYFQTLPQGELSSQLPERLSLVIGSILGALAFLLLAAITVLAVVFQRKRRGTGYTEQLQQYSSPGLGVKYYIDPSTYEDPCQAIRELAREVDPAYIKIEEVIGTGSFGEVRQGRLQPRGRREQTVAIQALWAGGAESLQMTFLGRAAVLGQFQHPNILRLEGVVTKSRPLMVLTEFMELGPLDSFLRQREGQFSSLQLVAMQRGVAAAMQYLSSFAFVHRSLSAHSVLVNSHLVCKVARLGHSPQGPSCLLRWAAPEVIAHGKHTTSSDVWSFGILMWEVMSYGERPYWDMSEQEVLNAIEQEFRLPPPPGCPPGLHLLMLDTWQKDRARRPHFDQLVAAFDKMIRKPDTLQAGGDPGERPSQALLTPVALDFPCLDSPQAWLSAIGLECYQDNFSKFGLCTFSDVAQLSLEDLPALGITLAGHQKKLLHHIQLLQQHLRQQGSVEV

PIK3CA (H1047L) = PIK3CA (H1047L) (Homo sapiens, UniProt P42336, H1047L)
[2] = target: ABL1 (T315I) non-phosphorylated (Homo sapiens, UniProt P00519, T315I)
ERK5 = ERK5 (Homo sapiens, UniProt Q13164)
WEE1 = WEE1 (Homo sapiens, UniProt P30291)
TTK = TTK (Homo sapiens, UniProt P33981)
NLK = NLK (Homo sapiens, UniProt Q9UBE8)
FGFR3 = FGFR3 (Homo sapiens, UniProt P22607)
RIPK5 = RIPK5 (Homo sapiens, UniProt Q6XUX3)
PIP5K1A = PIP5K1A (Homo sapiens, UniProt Q99755)
MYO3A = MYO3A (Homo sapiens, UniProt Q8NEV4)
CDK3 = CDK3 (Homo sapiens, UniProt Q00526)
CHEK2 = CHEK2 (Homo sapiens, UniProt O96017)
BRSK2 = BRSK2 (Homo sapiens, UniProt Q8IWQ3)
BRSK2, sequence (Q8IWQ3 whole entry): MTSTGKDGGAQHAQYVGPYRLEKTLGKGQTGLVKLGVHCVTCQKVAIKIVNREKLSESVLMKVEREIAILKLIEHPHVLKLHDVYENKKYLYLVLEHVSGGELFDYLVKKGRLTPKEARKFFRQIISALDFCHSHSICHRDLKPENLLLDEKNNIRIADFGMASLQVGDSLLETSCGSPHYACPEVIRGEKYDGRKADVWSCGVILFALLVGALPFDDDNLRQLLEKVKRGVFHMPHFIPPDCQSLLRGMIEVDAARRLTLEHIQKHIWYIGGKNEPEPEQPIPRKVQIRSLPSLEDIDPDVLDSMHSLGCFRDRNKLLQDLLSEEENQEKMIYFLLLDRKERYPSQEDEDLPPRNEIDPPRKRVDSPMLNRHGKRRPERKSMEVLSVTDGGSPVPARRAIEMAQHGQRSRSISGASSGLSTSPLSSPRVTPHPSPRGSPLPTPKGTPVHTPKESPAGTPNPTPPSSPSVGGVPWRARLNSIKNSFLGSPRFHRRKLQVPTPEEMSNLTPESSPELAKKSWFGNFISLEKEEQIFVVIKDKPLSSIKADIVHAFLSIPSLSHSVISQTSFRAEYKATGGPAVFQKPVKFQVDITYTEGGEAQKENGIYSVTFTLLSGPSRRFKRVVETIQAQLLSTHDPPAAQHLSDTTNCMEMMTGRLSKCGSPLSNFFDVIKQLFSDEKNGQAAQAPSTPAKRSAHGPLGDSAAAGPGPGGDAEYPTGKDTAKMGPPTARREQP

PLK1 = PLK1 (Homo sapiens, UniProt P53350)
CSNK1G3 = CSNK1G3 (Homo sapiens, UniProt Q9Y6M4)
PIK3CD = PIK3CD (Homo sapiens, UniProt O00329)

MYO3B, sequence (Q8WXR4 whole entry): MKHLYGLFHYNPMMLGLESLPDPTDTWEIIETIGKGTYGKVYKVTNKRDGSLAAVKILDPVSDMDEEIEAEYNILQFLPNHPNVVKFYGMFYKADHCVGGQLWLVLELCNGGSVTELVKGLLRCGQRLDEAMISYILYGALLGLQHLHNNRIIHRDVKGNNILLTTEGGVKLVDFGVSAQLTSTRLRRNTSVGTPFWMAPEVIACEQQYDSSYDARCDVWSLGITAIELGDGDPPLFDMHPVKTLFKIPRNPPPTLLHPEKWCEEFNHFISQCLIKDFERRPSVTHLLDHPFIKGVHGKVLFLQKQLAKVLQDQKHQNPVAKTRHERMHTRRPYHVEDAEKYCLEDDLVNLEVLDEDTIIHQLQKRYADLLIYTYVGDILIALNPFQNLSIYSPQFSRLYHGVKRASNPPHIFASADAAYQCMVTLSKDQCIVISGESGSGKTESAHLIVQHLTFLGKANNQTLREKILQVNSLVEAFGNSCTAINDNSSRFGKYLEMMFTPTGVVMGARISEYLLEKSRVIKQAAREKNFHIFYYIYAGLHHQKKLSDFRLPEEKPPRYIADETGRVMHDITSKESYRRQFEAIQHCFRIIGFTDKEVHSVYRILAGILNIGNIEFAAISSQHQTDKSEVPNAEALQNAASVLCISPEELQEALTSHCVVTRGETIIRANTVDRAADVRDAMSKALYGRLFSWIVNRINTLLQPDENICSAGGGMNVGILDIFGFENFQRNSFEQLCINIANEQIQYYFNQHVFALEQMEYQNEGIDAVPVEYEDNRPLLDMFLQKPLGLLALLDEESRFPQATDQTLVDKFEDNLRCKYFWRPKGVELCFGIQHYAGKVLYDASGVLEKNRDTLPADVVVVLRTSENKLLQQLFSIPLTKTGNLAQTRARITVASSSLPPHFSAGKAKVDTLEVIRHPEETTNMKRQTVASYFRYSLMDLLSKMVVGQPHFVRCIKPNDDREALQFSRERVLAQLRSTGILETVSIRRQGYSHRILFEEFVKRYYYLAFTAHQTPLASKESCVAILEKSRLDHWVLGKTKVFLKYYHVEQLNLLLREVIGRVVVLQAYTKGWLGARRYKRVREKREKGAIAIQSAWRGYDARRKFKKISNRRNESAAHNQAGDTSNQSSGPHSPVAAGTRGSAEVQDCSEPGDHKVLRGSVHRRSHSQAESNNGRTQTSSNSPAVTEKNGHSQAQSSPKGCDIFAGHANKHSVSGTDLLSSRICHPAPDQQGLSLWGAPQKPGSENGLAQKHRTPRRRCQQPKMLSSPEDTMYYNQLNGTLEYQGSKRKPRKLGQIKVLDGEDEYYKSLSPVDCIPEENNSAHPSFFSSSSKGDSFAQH

**Q.** Which remaining binding at 10 µM (FLT3-autoinhibited) does the source give for Nc1ncc(-c2nc3ccccc3o2)c(-c2ccncc2)n1 [Comparative Compound 324, 5-(1,3-benzoxazol-2-yl)-4-(pyridine-4-yl)pyrimidin-2-amine] here?
**A.** 95%

**Q.** What about the remaining binding at 10 µM (PIK3CA (Q546K)) of the same compound?
**A.** 90%

**Q.** What about the remaining binding at 10 µM (MEK1) of the same compound?
**A.** 97%

**Q.** And the remaining binding at 10 µM (ULK1)?
**A.** 93%

**Q.** What about the remaining binding at 10 µM (MYO3B) of the same compound?
**A.** 100%

**Q.** And the remaining binding at 10 µM (EPHB2)?
**A.** 99%

**Q.** What about the remaining binding at 10 µM (PHKG1) of the same compound?
**A.** 100%

**Q.** And the remaining binding at 10 µM (MKK7)?
**A.** 100%

**Q.** What about the remaining binding at 10 µM (RET (V804L)) of the same compound?
**A.** 86%

**Q.** What about the remaining binding at 10 µM [1] of the same compound?
**A.** 75%

**Q.** What about the remaining binding at 10 µM (MAPKAPK5) of the same compound?
**A.** 100%

**Q.** What about the remaining binding at 10 µM (p38-delta) of the same compound?
**A.** 90%

**Q.** And the remaining binding at 10 µM (EIF2AK1)?
**A.** 83%

**Q.** What about the remaining binding at 10 µM (MAP3K15) of the same compound?
**A.** 100%

**Q.** And the remaining binding at 10 µM (RIOK2)?
**A.** 87%

**Q.** What about the remaining binding at 10 µM (MUSK) of the same compound?
**A.** 100%

**Q.** What about the remaining binding at 10 µM (MTOR) of the same compound?
**A.** 71%

**Q.** What about the remaining binding at 10 µM (ASK2) of the same compound?
**A.** 99%

**Q.** What about the remaining binding at 10 µM (PRKCQ) of the same compound?
**A.** 100%

**Q.** And the remaining binding at 10 µM (PAK3)?
**A.** 95%

**Q.** And the remaining binding at 10 µM (KIT-autoinhibited)?
**A.** 88%

**Q.** And the remaining binding at 10 µM (EPHA4)?
**A.** 100%

**Q.** What about the remaining binding at 10 µM (CDKL1) of the same compound?
**A.** 68%

**Q.** And the remaining binding at 10 µM (DMPK)?
**A.** 100%

**Q.** And the remaining binding at 10 µM (EPHB6)?
**A.** 65%

**Q.** And the remaining binding at 10 µM (PIK3CA (H1047L))?
**A.** 100%

**Q.** And the remaining binding at 10 µM [2]?
**A.** 96%

**Q.** What about the remaining binding at 10 µM (ERK5) of the same compound?
**A.** 93%

**Q.** And the remaining binding at 10 µM (WEE1)?
**A.** 100%

**Q.** And the remaining binding at 10 µM (TTK)?
**A.** 100%

**Q.** What about the remaining binding at 10 µM (NLK) of the same compound?
**A.** 41%

**Q.** What about the remaining binding at 10 µM (FGFR3) of the same compound?
**A.** 95%

**Q.** And the remaining binding at 10 µM (RIPK5)?
**A.** 96%

**Q.** What about the remaining binding at 10 µM (PIP5K1A) of the same compound?
**A.** 96%

**Q.** What about the remaining binding at 10 µM (MYO3A) of the same compound?
**A.** 98%

**Q.** And the remaining binding at 10 µM (CDK3)?
**A.** 98%

**Q.** What about the remaining binding at 10 µM (CHEK2) of the same compound?
**A.** 100%

**Q.** What about the remaining binding at 10 µM (BRSK2) of the same compound?
**A.** 100%

**Q.** And the remaining binding at 10 µM (PLK1)?
**A.** 90%

**Q.** What about the remaining binding at 10 µM (CSNK1G3) of the same compound?
**A.** 83%

**Q.** What about the remaining binding at 10 µM (PIK3CD) of the same compound?
**A.** 100%

**Q.** For CNc1c(C(N)=O)c2ccccn2c1C(=O)c1ccc(F)cc1 [Compound A, 2-methyl-amino-3-[(4-fluorophenyl)carbonyl]indolizine-1-carboxamide], which remaining binding at 10 µM (FLT3-autoinhibited) is on record?
**A.** 87%

**Q.** And the remaining binding at 10 µM (PIK3CA (Q546K))?
**A.** 93%

**Q.** And the remaining binding at 10 µM (MEK1)?
**A.** 39%

**Q.** What about the remaining binding at 10 µM (ULK1) of the same compound?
**A.** 86%

**Q.** And the remaining binding at 10 µM (MYO3B)?
**A.** 100%

**Q.** What about the remaining binding at 10 µM (EPHB2) of the same compound?
**A.** 82%

**Q.** And the remaining binding at 10 µM (PHKG1)?
**A.** 97%

**Q.** What about the remaining binding at 10 µM (MKK7) of the same compound?
**A.** 100%

**Q.** What about the remaining binding at 10 µM (RET (V804L)) of the same compound?
**A.** 67%

**Q.** What about the remaining binding at 10 µM [1] of the same compound?
**A.** 46%

**Q.** And the remaining binding at 10 µM (MAPKAPK5)?
**A.** 100%

**Q.** And the remaining binding at 10 µM (p38-delta)?
**A.** 85%

**Q.** What about the remaining binding at 10 µM (EIF2AK1) of the same compound?
**A.** 86%

**Q.** What about the remaining binding at 10 µM (MAP3K15) of the same compound?
**A.** 94%

**Q.** And the remaining binding at 10 µM (RIOK2)?
**A.** 66%

**Q.** And the remaining binding at 10 µM (MUSK)?
**A.** 96%

**Q.** And the remaining binding at 10 µM (MTOR)?
**A.** 96%

**Q.** What about the remaining binding at 10 µM (ASK2) of the same compound?
**A.** 100%

**Q.** What about the remaining binding at 10 µM (PRKCQ) of the same compound?
**A.** 88%

**Q.** What about the remaining binding at 10 µM (PAK3) of the same compound?
**A.** 75%

**Q.** And the remaining binding at 10 µM (KIT-autoinhibited)?
**A.** 78%

**Q.** And the remaining binding at 10 µM (EPHA4)?
**A.** 98%

**Q.** And the remaining binding at 10 µM (CDKL1)?
**A.** 61%

**Q.** What about the remaining binding at 10 µM (DMPK) of the same compound?
**A.** 100%

**Q.** What about the remaining binding at 10 µM (EPHB6) of the same compound?
**A.** 64%

**Q.** And the remaining binding at 10 µM (PIK3CA (H1047L))?
**A.** 100%

**Q.** And the remaining binding at 10 µM [2]?
**A.** 89%

**Q.** What about the remaining binding at 10 µM (ERK5) of the same compound?
**A.** 78%

**Q.** And the remaining binding at 10 µM (WEE1)?
**A.** 94%

**Q.** What about the remaining binding at 10 µM (TTK) of the same compound?
**A.** 92%

**Q.** What about the remaining binding at 10 µM (NLK) of the same compound?
**A.** 35%

**Q.** What about the remaining binding at 10 µM (FGFR3) of the same compound?
**A.** 90%

**Q.** And the remaining binding at 10 µM (RIPK5)?
**A.** 79%

**Q.** What about the remaining binding at 10 µM (PIP5K1A) of the same compound?
**A.** 100%

**Q.** And the remaining binding at 10 µM (MYO3A)?
**A.** 98%

**Q.** And the remaining binding at 10 µM (CDK3)?
**A.** 92%

**Q.** And the remaining binding at 10 µM (CHEK2)?
**A.** 100%

**Q.** And the remaining binding at 10 µM (BRSK2)?
**A.** 94%

**Q.** And the remaining binding at 10 µM (PLK1)?
**A.** 82%

**Q.** And the remaining binding at 10 µM (CSNK1G3)?
**A.** 85%

**Q.** And the remaining binding at 10 µM (PIK3CD)?
**A.** 100%

From US10815230B2, “Casein kinase 1 delta inhibitor” (ELECTROPHORETICS LIMITED, priority 2015, dated 2020)
